Assay results from ChEMBL document CHEMBL1149847, “Erigeroflavanone, a flavanone derivative from the flowers of Erigeron annuus with protein glycation and aldose reductase inhibitory activity” (J Nat Prod, 2008).

Tests used:
[1] = Inhibition of advanced glycation end products formation after 14 days; type: physicochemical
[2] = molecular target: Aldo-keto reductase family 1 member B1 (Rattus norvegicus, UniProt P07943); assay: Inhibition of rat lens aldose reductase

SMILES | IC50 [1] [µM] | IC50 [2] [µM]
O=C(O)[C@H]1O[C@@H](Oc2cc(O)c3c(=O)cc(-c4ccc(O)cc4)oc3c2)[C@H](O)[C@@H](O)[C@@H]1O | 107 | 1.28
COC(=O)[C@H]1O[C@@H](Oc2cc(O)c3c(=O)cc(-c4ccc(O)cc4)oc3c2)[C@H](O)[C@@H](O)[C@@H]1O | – | 9.02
COC(=O)C[C@]1(O)C(=O)c2c(O)cc(O)cc2O[C@]1(OC)c1ccc(O)c(O)c1 (relative stereo) [ERIGEROFLAVANONE] | – | 46.9
O=c1cc(-c2ccc(O)cc2)oc2cc(O)cc(O)c12 [APIGENIN] | 89.9 | 6.67
O=c1c(O[C@@H]2O[C@H](CO)[C@@H](O)[C@H](O)[C@H]2O)c(-c2ccc(O)cc2)oc2cc(O)cc(O)c12 [ASTRAGALIN] | 179 | –
O=c1c(O)c(-c2ccc(O)cc2)oc2cc(O)cc(O)c12 [KAEMPFEROL] | – | 1.33
N=C(N)NN [PIMAGEDINE] | 961 | –
C[C@@H]1O[C@@H](Oc2c(-c3ccc(O)c(O)c3)oc3cc(O)cc(O)c3c2=O)[C@H](O)[C@H](O)[C@H]1O [QUERCITRIN] | – | 0.16
